The subject of assay [1] is Nucleic Acid. In words: Binding affinity to d(TTAGGG) sequence of G-quadruplex DNA. In kind it is nucleic-acid assay.
Assay [2] relates to Nucleic Acid. In words: Binding affinity to DNA duplex. In kind it is nucleic-acid assay.

The results in this text go back to ChEMBL document CHEMBL1154818, “Molecular modeling study of binding site selectivity of TQMP to G-quadruplex DNA” (Eur J Med Chem, 2010).

On to `C[n+]1ccc(-c2c3nc(c(-c4cc[n+](C)cc4)c4ccc([nH]4)c(-c4cc[n+](C)cc4)c4ccc([nH]4)c(-c4cc[n+](C)cc4)c4nc2C=C4)C=C3)cc1`, for which the K was determined as 1.38 ×10⁷ /mol in the assay on Nucleic Acid [1] and 2.73 ×10⁶ /mol in the assay with Nucleic Acid [2].

On to `C[N+](C)(C)Cc1cc(-c2c3nc(c(-c4ccc(O)c(C[N+](C)(C)C)c4)c4ccc([nH]4)c(-c4ccc(O)c(C[N+](C)(C)C)c4)c4nc(c(-c5ccc(O)c(C[N+](C)(C)C)c5)c5ccc2[nH]5)C=C4)C=C3)ccc1O`, for which the values for the K in the assay on Nucleic Acid [1] and with Nucleic Acid [2] were 1.12 ×10⁶ /mol and 3.18 ×10⁴ /mol, respectively.
